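Cultured in 96-well plates, cells were exposed to test compound for 48 hours across five concentrations. The concentration for 50% growth inhibition is given as GI50. At the TGI there is no net growth.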
Columns and labels:
Experiment in all cases: NCI tumour cell line growth inhibition, 48 h
MDA-MB-231 breast = tested on: MDA-MB-231 breast
NCI-H460 lung = tested on: NCI-H460 lung
EKVX NSCLC = tested on: EKVX NSCLC
PC-3 prostate = tested on: PC-3 prostate
SF-295 CNS = tested on: SF-295 CNS
NCI-H23 lung = tested on: NCI-H23 lung
NCI-H226 lung = tested on: NCI-H226 lung
UACC-257 melanoma = tested on: UACC-257 melanoma
SF-268 CNS = tested on: SF-268 CNS
OVCAR-5 ovarian = tested on: OVCAR-5 ovarian
SNB-19 CNS = tested on: SNB-19 CNS
U251 CNS = tested on: U251 CNS
CAKI-1 renal = tested on: CAKI-1 renal
OVCAR-3 ovarian = tested on: OVCAR-3 ovarian
K-562 leukemia = tested on: K-562 leukemia
SK-MEL-2 melanoma = tested on: SK-MEL-2 melanoma
HCC-2998 colon = tested on: HCC-2998 colon
COLO 205 colon = tested on: COLO 205 colon
HCT-15 colon = tested on: HCT-15 colon
ACHN renal = tested on: ACHN renal
RPMI-8226 leukemia = tested on: RPMI-8226 leukemia
T-47D breast = tested on: T-47D breast
HT29 colon = tested on: HT29 colon
SK-OV-3 ovarian = tested on: SK-OV-3 ovarian
UO-31 renal = tested on: UO-31 renal
BT-549 breast = tested on: BT-549 breast
MALME-3M melanoma = tested on: MALME-3M melanoma
IGROV1 ovarian = tested on: IGROV1 ovarian
SR leukemia = tested on: SR leukemia
NCI/ADR-RES ovarian = tested on: NCI/ADR-RES ovarian
DU-145 prostate = tested on: DU-145 prostate
786-0 renal = tested on: 786-0 renal
M14 melanoma = tested on: M14 melanoma
HCT-116 colon = tested on: HCT-116 colon
OVCAR-4 ovarian = tested on: OVCAR-4 ovarian
KM12 colon = tested on: KM12 colon
SF-539 CNS = tested on: SF-539 CNS
MCF7 breast = tested on: MCF7 breast
HOP-62 NSCLC = tested on: HOP-62 NSCLC
OVCAR-8 ovarian = tested on: OVCAR-8 ovarian
LOX IMVI melanoma = tested on: LOX IMVI melanoma
A549 NSCLC = tested on: A549 NSCLC
TK-10 renal = tested on: TK-10 renal
SW-620 colon = tested on: SW-620 colon
UACC-62 melanoma = tested on: UACC-62 melanoma
SK-MEL-5 melanoma = tested on: SK-MEL-5 melanoma
MDA-MB-435 = tested on: MDA-MB-435
HOP-92 NSCLC = tested on: HOP-92 NSCLC
SNB-75 CNS = tested on: SNB-75 CNS
CCRF-CEM leukemia = tested on: CCRF-CEM leukemia
MOLT-4 leukemia = tested on: MOLT-4 leukemia
A498 renal = tested on: A498 renal
SK-MEL-28 melanoma = tested on: SK-MEL-28 melanoma
RXF 393 renal = tested on: RXF 393 renal
NCI-H522 lung = tested on: NCI-H522 lung
HS 578T breast = tested on: HS 578T breast
HL-60(TB) leukemia = tested on: HL-60(TB) leukemia

SMILES: COCP1(=S)OC(C)CCN1C(C)C (centres undefined)
- TGI (MDA-MB-231 breast): > 100 µM
- TGI (NCI-H460 lung): > 100 µM
- TGI (EKVX NSCLC): > 100 µM
- TGI (PC-3 prostate): > 100 µM
- TGI (SF-295 CNS): > 100 µM
- TGI (NCI-H23 lung): > 100 µM
- TGI (NCI-H226 lung): > 100 µM
- TGI (UACC-257 melanoma): > 100 µM
- TGI (SF-268 CNS): > 100 µM
- TGI (OVCAR-5 ovarian): > 100 µM
- TGI (SNB-19 CNS): > 100 µM
- TGI (U251 CNS): > 100 µM
- TGI (CAKI-1 renal): > 100 µM
- TGI (OVCAR-3 ovarian): > 100 µM
- TGI (K-562 leukemia): > 100 µM
- TGI (SK-MEL-2 melanoma): > 100 µM
- TGI (HCC-2998 colon): > 100 µM
- TGI (COLO 205 colon): > 100 µM
- TGI (HCT-15 colon): > 100 µM
- TGI (ACHN renal): > 100 µM
- TGI (RPMI-8226 leukemia): > 100 µM
- TGI (T-47D breast): > 100 µM
- TGI (HT29 colon): > 100 µM
- TGI (SK-OV-3 ovarian): > 100 µM
- TGI (UO-31 renal): > 100 µM
- TGI (BT-549 breast): > 100 µM
- TGI (MALME-3M melanoma): > 100 µM
- TGI (IGROV1 ovarian): > 100 µM
- TGI (SR leukemia): > 100 µM
- TGI (NCI/ADR-RES ovarian): > 100 µM
- TGI (DU-145 prostate): > 100 µM
- TGI (786-0 renal): > 100 µM
- TGI (M14 melanoma): > 100 µM
- TGI (HCT-116 colon): > 100 µM
- TGI (OVCAR-4 ovarian): > 100 µM
- TGI (KM12 colon): > 100 µM
- TGI (SF-539 CNS): > 100 µM
- TGI (MCF7 breast): > 100 µM
- TGI (HOP-62 NSCLC): > 100 µM
- TGI (OVCAR-8 ovarian): > 100 µM
- TGI (LOX IMVI melanoma): > 100 µM
- TGI (A549 NSCLC): > 100 µM
- TGI (TK-10 renal): > 100 µM
- TGI (SW-620 colon): > 100 µM
- TGI (UACC-62 melanoma): > 100 µM
- TGI (SK-MEL-5 melanoma): > 100 µM
- TGI (MDA-MB-435): > 100 µM

SMILES: COc1ccc(C2c3c(n(C)c(=O)n(C)c3=O)OC(N(C)C)(N(C)C)C2(F)F)cc1 (centres undefined)
- TGI (MDA-MB-231 breast): > 100 µM
- TGI (NCI-H460 lung): > 100 µM
- TGI (EKVX NSCLC): > 100 µM
- TGI (PC-3 prostate): > 100 µM
- TGI (SF-295 CNS): > 100 µM
- TGI (NCI-H23 lung): > 100 µM
- TGI (HOP-92 NSCLC): > 100 µM
- TGI (NCI-H226 lung): > 100 µM
- TGI (UACC-257 melanoma): > 100 µM
- TGI (SF-268 CNS): > 100 µM
- TGI (OVCAR-5 ovarian): > 100 µM
- TGI (SNB-19 CNS): > 100 µM
- TGI (U251 CNS): > 100 µM
- TGI (CAKI-1 renal): > 100 µM
- TGI (OVCAR-3 ovarian): > 100 µM
- TGI (SNB-75 CNS): > 100 µM
- TGI (K-562 leukemia): > 100 µM
- TGI (SK-MEL-2 melanoma): > 100 µM
- TGI (HCC-2998 colon): > 100 µM
- TGI (COLO 205 colon): > 100 µM
- TGI (CCRF-CEM leukemia): > 100 µM
- TGI (HCT-15 colon): > 100 µM
- TGI (ACHN renal): > 100 µM
- TGI (RPMI-8226 leukemia): > 100 µM
- TGI (T-47D breast): > 100 µM
- TGI (MOLT-4 leukemia): > 100 µM
- TGI (A498 renal): > 100 µM
- TGI (SK-OV-3 ovarian): > 100 µM
- TGI (UO-31 renal): > 100 µM
- TGI (BT-549 breast): > 100 µM
- TGI (NCI/ADR-RES ovarian): > 100 µM
- TGI (DU-145 prostate): > 100 µM
- TGI (786-0 renal): > 100 µM
- TGI (M14 melanoma): > 100 µM
- TGI (HCT-116 colon): > 100 µM
- TGI (OVCAR-4 ovarian): > 100 µM
- TGI (KM12 colon): > 100 µM
- TGI (SK-MEL-28 melanoma): > 100 µM
- TGI (SF-539 CNS): > 100 µM
- TGI (MCF7 breast): > 100 µM
- TGI (HOP-62 NSCLC): > 100 µM
- TGI (LOX IMVI melanoma): > 100 µM
- TGI (A549 NSCLC): > 100 µM
- TGI (TK-10 renal): > 100 µM
- TGI (SW-620 colon): > 100 µM
- TGI (UACC-62 melanoma): > 100 µM
- TGI (SK-MEL-5 melanoma): > 100 µM
- TGI (MDA-MB-435): > 100 µM
- TGI (RXF 393 renal): > 100 µM

SMILES: COC(=O)/C=C1/SC(=Nc2ccc(C(F)(F)F)cc2)N(CCc2c[nH]c3ccc(O)cc23)C1=O
- GI50 (MDA-MB-231 breast): 1.91 µM
- TGI (MDA-MB-231 breast): 4.67 µM
- GI50 (NCI-H460 lung): 1.87 µM
- TGI (NCI-H460 lung): 3.79 µM
- GI50 (EKVX NSCLC): 3.2 µM
- TGI (EKVX NSCLC): > 100 µM
- GI50 (UACC-257 melanoma): 1.94 µM
- TGI (UACC-257 melanoma): 5.17 µM
- GI50 (SF-268 CNS): 1.69 µM
- TGI (SF-268 CNS): 5.36 µM
- GI50 (U251 CNS): 1.46 µM
- TGI (U251 CNS): 3.05 µM
- GI50 (CAKI-1 renal): 2.71 µM
- TGI (CAKI-1 renal): > 100 µM
- GI50 (NCI-H522 lung): 1.5 µM
- TGI (NCI-H522 lung): 3.25 µM
- GI50 (SNB-75 CNS): 2.27 µM
- TGI (SNB-75 CNS): 9.68 µM
- GI50 (K-562 leukemia): 1.55 µM
- TGI (K-562 leukemia): > 100 µM
- GI50 (SK-MEL-2 melanoma): 1.52 µM
- TGI (SK-MEL-2 melanoma): 3.22 µM
- GI50 (HCC-2998 colon): 1.94 µM
- TGI (HCC-2998 colon): 3.56 µM
- GI50 (CCRF-CEM leukemia): 0.569 µM
- TGI (CCRF-CEM leukemia): 6.69 µM
- GI50 (RPMI-8226 leukemia): 0.722 µM
- TGI (RPMI-8226 leukemia): 3.26 µM
- GI50 (T-47D breast): 2.07 µM
- TGI (T-47D breast): 9.64 µM
- GI50 (HT29 colon): 1.75 µM
- TGI (HT29 colon): 3.43 µM
- GI50 (MOLT-4 leukemia): 0.349 µM
- TGI (MOLT-4 leukemia): 10.1 µM
- GI50 (SR leukemia): 0.416 µM
- TGI (SR leukemia): 5.25 µM
- GI50 (NCI/ADR-RES ovarian): 2.16 µM
- TGI (NCI/ADR-RES ovarian): 8.96 µM
- GI50 (DU-145 prostate): 2.21 µM
- TGI (DU-145 prostate): > 100 µM
- GI50 (HS 578T breast): 1.87 µM
- TGI (HS 578T breast): 5.78 µM
- GI50 (HOP-62 NSCLC): 1.75 µM
- TGI (HOP-62 NSCLC): 3.85 µM
- GI50 (HL-60(TB) leukemia): 1.57 µM
- TGI (HL-60(TB) leukemia): 6.65 µM
- GI50 (OVCAR-8 ovarian): 1.62 µM
- TGI (OVCAR-8 ovarian): 6.04 µM
- GI50 (LOX IMVI melanoma): 1.25 µM
- TGI (LOX IMVI melanoma): 2.68 µM
- GI50 (A549 NSCLC): 3.05 µM
- TGI (A549 NSCLC): > 100 µM
- GI50 (TK-10 renal): 2.25 µM
- TGI (TK-10 renal): 5.76 µM
- GI50 (SK-MEL-5 melanoma): 1.86 µM
- TGI (SK-MEL-5 melanoma): 3.99 µM
- GI50 (RXF 393 renal): 1.16 µM
- TGI (RXF 393 renal): 2.59 µM

Reference: PubChem BioAssay (NCI)
